Source: the NIST ThermoML archive (doi:10.1016/j.fluid.2014.10.002)
Where “and” joins values, the source holds several entries; their conditions need not be identical. Identical values can stand only once.

Conditions: Liquid, Vibrating wire viscometry

CCCCC(CC)COC(=O)c1ccc(C(=O)OCC(CC)CCCC)c(C(=O)OCC(CC)CCCC)c1 (stereo unspecified) [tris(2-ethylhexyl) trimellitate]
Conditions	viscosity
343.14 K, 49870 kPa	53.82 mPa·s and 53.79 mPa·s
343.14 K, 50340 kPa	53.74 mPa·s
343.14 K, 50350 kPa	53.88 mPa·s
343.14 K, 50360 kPa	53.81 mPa·s and 53.95 mPa·s and 53.91 mPa·s
343.14 K, 65050 kPa	68.46 mPa·s
343.14 K, 65060 kPa	68.25 mPa·s
343.14 K, 65070 kPa	68.22 mPa·s
343.14 K, 65080 kPa	68.37 mPa·s
343.14 K, 65100 kPa	68.38 mPa·s
343.15 K, 1040 kPa	22.81 mPa·s
343.15 K, 1050 kPa	22.74 mPa·s
343.15 K, 1060 kPa	22.78 mPa·s
343.15 K, 1070 kPa	22.74 mPa·s
343.15 K, 1090 kPa	22.81 mPa·s
343.15 K, 2540 kPa	23.48 mPa·s and 23.4 mPa·s
343.15 K, 2580 kPa	23.42 mPa·s
343.15 K, 4800 kPa	24.49 mPa·s
343.15 K, 4820 kPa	24.51 mPa·s
343.15 K, 4880 kPa	24.44 mPa·s
343.15 K, 4900 kPa	24.44 mPa·s and 24.52 mPa·s and 24.43 mPa·s
343.15 K, 7530 kPa	25.82 mPa·s
343.15 K, 7590 kPa	25.76 mPa·s
343.15 K, 7630 kPa	25.78 mPa·s
343.15 K, 7650 kPa	25.77 mPa·s
343.15 K, 10140 kPa	27.08 mPa·s
343.15 K, 15040 kPa	29.65 mPa·s and 29.63 mPa·s
343.15 K, 15050 kPa	29.64 mPa·s
343.15 K, 15060 kPa	29.74 mPa·s
343.15 K, 15070 kPa	29.73 mPa·s
343.15 K, 15090 kPa	29.74 mPa·s
358.18 K, 2460 kPa	14.15 mPa·s
358.18 K, 2470 kPa	14.13 mPa·s
358.18 K, 2480 kPa	14.11 mPa·s
358.18 K, 2490 kPa	14.11 mPa·s
358.18 K, 2500 kPa	14.16 mPa·s
358.18 K, 2530 kPa	14.14 mPa·s
358.18 K, 4840 kPa	14.65 mPa·s
358.18 K, 4860 kPa	14.68 mPa·s
358.18 K, 4920 kPa	14.69 mPa·s
358.18 K, 4960 kPa	14.64 mPa·s
358.18 K, 4990 kPa	14.64 mPa·s
358.18 K, 7360 kPa	15.35 mPa·s
358.18 K, 7370 kPa	15.37 mPa·s
358.18 K, 7390 kPa	15.35 mPa·s
358.18 K, 7410 kPa	15.34 mPa·s
358.18 K, 7420 kPa	15.37 mPa·s and 15.38 mPa·s
358.18 K, 10350 kPa	16.11 mPa·s
358.18 K, 10380 kPa	16.12 mPa·s
358.18 K, 10410 kPa	16.11 mPa·s
358.18 K, 15320 kPa	17.52 mPa·s
358.18 K, 20050 kPa	18.99 mPa·s
358.18 K, 20070 kPa	19.03 mPa·s and 18.97 mPa·s
358.18 K, 20090 kPa	18.99 mPa·s
358.18 K, 20120 kPa	18.99 mPa·s
358.18 K, 20130 kPa	19.05 mPa·s
358.18 K, 40240 kPa	26.25 mPa·s
358.18 K, 40250 kPa	26.27 mPa·s
358.18 K, 40260 kPa	26.24 mPa·s
358.18 K, 40280 kPa	26.21 mPa·s
358.18 K, 40290 kPa	26.24 mPa·s
358.19 K, 1290 kPa	13.79 mPa·s
358.19 K, 1330 kPa	13.79 mPa·s
358.19 K, 1380 kPa	13.85 mPa·s
358.19 K, 10470 kPa	16.13 mPa·s
358.19 K, 15340 kPa	17.51 mPa·s
358.19 K, 15360 kPa	17.51 mPa·s
358.19 K, 15370 kPa	17.52 mPa·s
358.19 K, 15390 kPa	17.53 mPa·s
358.19 K, 15410 kPa	17.54 mPa·s
358.19 K, 30310 kPa	22.42 mPa·s
358.19 K, 30360 kPa	22.4 mPa·s
358.19 K, 30380 kPa	22.43 mPa·s and 22.47 mPa·s and 22.46 mPa·s
358.19 K, 50360 kPa	30.62 mPa·s
358.19 K, 50380 kPa	30.63 mPa·s
358.19 K, 50390 kPa	30.61 mPa·s
358.19 K, 50400 kPa	30.65 mPa·s
358.19 K, 50420 kPa	30.65 mPa·s
358.19 K, 65540 kPa	38.26 mPa·s
358.19 K, 65550 kPa	38.23 mPa·s
358.19 K, 65570 kPa	38.28 mPa·s
358.19 K, 65600 kPa	38.23 mPa·s
358.19 K, 65610 kPa	38.23 mPa·s
373.17 K, 1070 kPa	8.988 mPa·s and 8.981 mPa·s and 8.984 mPa·s
373.17 K, 1080 kPa	8.99 mPa·s
373.17 K, 2690 kPa	9.227 mPa·s
373.17 K, 2720 kPa	9.242 mPa·s
373.17 K, 2730 kPa	9.241 mPa·s
373.17 K, 5100 kPa	9.651 mPa·s
373.17 K, 5110 kPa	9.649 mPa·s and 9.654 mPa·s
373.17 K, 5120 kPa	9.651 mPa·s
373.17 K, 5130 kPa	9.669 mPa·s
373.17 K, 5140 kPa	9.653 mPa·s
373.17 K, 7440 kPa	10.06 mPa·s
373.17 K, 7470 kPa	10.05 mPa·s
373.17 K, 7480 kPa	10.03 mPa·s
373.17 K, 7500 kPa	10.03 mPa·s
373.17 K, 10430 kPa	10.53 mPa·s
373.17 K, 10450 kPa	10.57 mPa·s
373.17 K, 15160 kPa	11.29 mPa·s
373.17 K, 15180 kPa	11.28 mPa·s
373.17 K, 15210 kPa	11.32 mPa·s and 11.33 mPa·s and 11.27 mPa·s
373.17 K, 65290 kPa	23.71 mPa·s
373.18 K, 2460 kPa	9.209 mPa·s and 9.224 mPa·s and 9.213 mPa·s
373.18 K, 2470 kPa	9.234 mPa·s
373.18 K, 2500 kPa	9.245 mPa·s
373.18 K, 2710 kPa	9.252 mPa·s
373.18 K, 10440 kPa	10.57 mPa·s
373.18 K, 10450 kPa	10.52 mPa·s
373.18 K, 10460 kPa	10.56 mPa·s
373.18 K, 20250 kPa	12.27 mPa·s and 12.26 mPa·s
373.18 K, 20260 kPa	12.27 mPa·s
373.18 K, 20270 kPa	12.29 mPa·s
373.18 K, 20290 kPa	12.3 mPa·s
373.18 K, 20320 kPa	12.28 mPa·s
373.18 K, 29980 kPa	14.31 mPa·s
373.18 K, 29990 kPa	14.32 mPa·s
373.18 K, 30000 kPa	14.27 mPa·s
373.18 K, 30010 kPa	14.3 mPa·s
373.18 K, 30030 kPa	14.28 mPa·s
373.18 K, 40130 kPa	16.58 mPa·s
373.18 K, 40140 kPa	16.57 mPa·s
373.18 K, 40150 kPa	16.63 mPa·s
373.18 K, 40170 kPa	16.61 mPa·s
373.18 K, 40190 kPa	16.64 mPa·s
373.18 K, 50280 kPa	19.18 mPa·s
373.18 K, 50290 kPa	19.21 mPa·s and 19.23 mPa·s
373.18 K, 50310 kPa	19.17 mPa·s
373.18 K, 50320 kPa	19.23 mPa·s
373.18 K, 65330 kPa	23.7 mPa·s
373.18 K, 65350 kPa	23.72 mPa·s
373.18 K, 65370 kPa	23.68 mPa·s
